Experiments:
[1] = Carcinogenesis 1987; 8:1559-1562; Proc Soc Exp Biol Med 1989; 191:346-351; cited from earlier work
[2] = system: rats treated with parenteral homocysteine thiolactone; conditions: Kazimir et al 2002; cited from earlier work
transplanted neoplasms = conditions: cited from earlier work; for growth of transplanted neoplasms in animals: U.S. Pat. No. 4,383,994
[3] = system: normal and hypophysectomized animals; conditions: Science 1976, 192:372-374, cited from earlier work
Toxicity in animal tests = conditions: 7.5 mg/70 kg/day to 300 mg/70 kg/day
Toxicity in human trials = conditions: 7.5 mg/70 kg/day to 300 mg/70 kg/day
retinal cells = conditions: through reactive oxygen species generation and increased expression of heme oxygenase; J Cell Physiol 2006; cited from earlier work
[4] = system: transplanted murine mammary adenocarcinoma; conditions: Chemotherapy 1977; 23:44-49; cited from earlier work
[5] = system: transplanted malignant neoplasms; conditions: animals with transplanted malignant neoplasms; U.S. Pat. No. 4,255,443; cited from earlier work

For “N-homocysteine thiolactonyl retinamido cobalamin [thioretinaco]”, the “anti-carcinogenic and anti-neoplastic activities” value [1] is listed as “have anti-carcinogenic and anti-neoplastic activities” and the anti-atherogenic activity [2] is listed as “have anti-atherogenic activity”.

For “rhodium trichloride oxalyl homocysteine thiolactone amide”, the “growth of transplanted neoplasms in animals” value (shortened to “growth … in animals”) (transplanted neoplasms) is given as “suppress the growth”.

For `N[C@@H](CCS(=O)(=O)O)C(=O)O` [Homocysteic acid], the “growth and release of insulin-like growth factor, IGF-1” value ([3]; hypophysectomized animals treated with thyroxine) is given as “promotes growth and release of insulin-like growth factor, IGF-1” and the “growth in normal animals” value ([3]; normal animals) is given as “promotes growth”.

For `CC1=C(/C=C/C(C)=C/C=C/C(C)=C/C(=O)NC2CCSC2=O)C(C)(C)CCC1` (stereo not shown) [thioretinamide, N-homocysteine thiolactonyl retinamide], the “anti-carcinogenic and anti-neoplastic activities” value [1] is given as “have anti-carcinogenic and anti-neoplastic activities” and the anti-atherogenic activity [2] is given as “have anti-atherogenic activity”.

For `CC1=C(/C=C/C(C)=C/C=C/C(C)=C/CO)C(C)(C)CCC1` [retinol], the “evidence of toxicity, such as weight loss, nausea, impairment of liver function, headache, or skin lesions” value (Toxicity in animal tests) was “no evidence of toxicity” and the “evidence of toxicity, such as weight loss, nausea, impairment of liver function, headache, or skin lesions” value (Toxicity in human trials) was “no evidence of toxicity”.

For N-maleyl homocysteine thiolactone amide, the “growth … in animals” value (transplanted neoplasms) is listed as “suppress the growth”.

In the case of `CC1=C(/C=C/C(C)=C/C=C/C(C)=C/C(=O)Nc2ccc(O)cc2)C(C)(C)CCC1` [fenretinide, N-(4-hydroxyphenyl)-retinamide], the “apoptosis in retinal cells” value (retinal cells) is listed as “induces apoptosis”.

For “pyridoxal homocysteine thiolactone enamine”, the “growth of transplanted murine mammary adenocarcinoma” value [4] is listed as “decrease the growth”.

In the case of “N-maleamide homocysteine thiolactone amide”, the “growth … in animals” value (transplanted neoplasms) is given as “suppress the growth” and the “effect of encapsulation within liposomes on anti-neoplastic activity” value (transplanted neoplasms; encapsulated within liposomes, Proc Soc Exp Biol Med 1985, 180:57-61) is given as “greatly enhances its anti-neoplastic activity”.

In the case of `N[C@H]1CCSC1=O.[O-][Cl+3]([O-])([O-])O` [homocysteine thiolactone perchlorate], the “necrosis within malignant neoplasms” value [5] is listed as “increased necrosis within malignant neoplasms”.

For `CCCCC/C=C/C/C=C/C/C=C/C/C=C/CCCC(=O)NC1CCSC1=O` (stereo not shown) [Arachidonoyl homocysteine thiolactone amide], the “growth of transplanted murine mammary adenocarcinoma” value [4] is given as “decrease the growth”.

Reference: patent US9682131B2, “Compositions and method for utilization of thioretinamide in therapy of degenerative diseases of aging” (priority 2011, dated 2017)
